Reference: PMC10576769 (Nature Communications, 2023)

Columns and labels:
[1] = target: T1, LmPC-PLC (Listeria monocytogenes serovar 1/2a, UniProt P33378); test: biochemical; type: biochemical; settings: for relative activity of LmPC-PLC WT on 4-NPPC (compared to uninhibited activity): Fig. 4g; for Activity of LmPC-PLC towards 4-NPPC (slope): 50 μM ZnSO4
[2] = target: T1, LmPC-PLC; type: biochemical; settings: 100% POPC MLVs […], 20 mM MES pH 6.5, 150 mM NaCl, 50 μM ZnSO4, 37 °C, replicate 1
[3] = target: broad-range phospholipase C from Listeria monocytogenes (LmPC-PLC), wild type, mature form (Listeria monocytogenes) (UniProt P33378)

T1 sequence (P33378 52-289 limits assumed): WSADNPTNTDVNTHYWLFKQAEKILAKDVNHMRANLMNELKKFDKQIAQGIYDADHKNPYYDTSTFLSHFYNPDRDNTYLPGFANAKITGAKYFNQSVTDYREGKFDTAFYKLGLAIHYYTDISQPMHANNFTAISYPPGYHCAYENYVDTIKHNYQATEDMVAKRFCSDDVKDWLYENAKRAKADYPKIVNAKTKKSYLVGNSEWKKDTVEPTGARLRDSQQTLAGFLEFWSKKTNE
broad-range phospholipase C from Listeria monocytogenes (LmPC-PLC), wild type, mature form, sequence (P33378 52-289): as the sequence (P33378 52-289 limits assumed) above

CC[C@H](C)[C@H](NC(=O)[C@H](CC(=O)O)NC(=O)[C@H](Cc1c[nH]cn1)NC(=O)[C@@H]1CCCN1C(=O)[C@H](C)NC(=O)[C@H](C)NC(=O)[C@@H]1CCCN1C(=O)[C@@H](NC(=O)[C@H](CCC(N)=O)NC(=O)[C@H](CC(C)C)NC(=O)[C@H](Cc1ccc(O)cc1)NC(=O)[C@H](CCC(=O)O)NC(=O)[C@H](CC(=O)O)NC(=O)[C@H](CS)NC(=O)[C@H](CS)NC(=O)[C@H](C)NC(=O)[C@@H](N)CC(N)=O)[C@@H](C)O)C(=O)N[C@@H](CC(=O)O)C(=O)N[C@@H](CO)C(=O)N[C@@H](CCCCN)C(=O)N[C@@H](CC(C)C)C(=O)N1CCC[C@H]1C(=O)N[C@@H](Cc1c[nH]cn1)C(=O)N[C@@H](CCCCN)C(=O)N[C@@H](CC(C)C)C(=O)N[C@@H](CO)C(=O)O [NS-26]
relative activity on 4-NPPC (compared to uninhibited activity), Lm ([1]; Fig. 4e, peptide 100uM, PC-PLC 500 nM, 4-NPPC 1 mM, 20 mM MES pH 6.5, 150 mM NaCl, 500 μM ZnSO4, 37 °C, replicate 1): 0.3179
relative activity of LmPC-PLC WT on 4-NPPC (compared to uninhibited activity) ([1]; as E100, replicate 2): 0.2706
relative activity of LmPC-PLC WT on 4-NPPC (compared to uninhibited activity) ([1]; as E100, replicate 3): 0.2574
relative activity of LmPC-PLC WT on 4-NPPC (compared to uninhibited activity) ([1]; peptide 100 uM, enzyme 500 nM, 4-NPPC 1 mM, 20 mM MES pH 6.5, 150 mM NaCl, 500 μM ZnSO4, 37 °C, replicate 1): 0.2356
IC50 ([1]; IC50, 95% CI, as IC50, 95% CI from the fit): 4.9 to 33.9 µM
IC50 ([1]; IC50, LmPC-PLC 500 nM, 4-NPPC 1 mM, 20 mM MES pH 6.5, 150 mM NaCl, 500 μM ZnSO4, 37 °C, four-parameter logistic fit, n = 3): 9.4 µM
relative activity on POPC (compared to uninhibited activity), Lm ([2]; Fig. 4f, peptide 10 uM, PC-PLC 50 nM): 0.3051
relative activity of LmPC-PLC WT on POPC (compared to uninhibited activity) ([2]; Fig. 4h, peptide 100 uM as printed in the head (legend and method: 10 μM), enzyme 50 nM): 0.2837

O=C(O)CCP(CCC(=O)O)CCC(=O)O [TCEP]
Activity of LmPC-PLC, 4-NPPC as substrate (slope) ([1]; 1 mM TCEP, Zn 500 uM, LmPC-PLC 500 nM, 4-NPPC 1 mM, replicate 1): 6.624e-5
Activity of LmPC-PLC, 4-NPPC as substrate (slope) ([1]; 1 mM TCEP, Zn 500 uM, LmPC-PLC 500 nM, 4-NPPC 1 mM, replicate 2): 6.51e-5
Activity of LmPC-PLC, 4-NPPC as substrate (slope) ([1]; 1 mM TCEP, Zn 500 uM, LmPC-PLC 500 nM, 4-NPPC 1 mM, replicate 3): 6.545e-5
Activity of LmPC-PLC, 4-NPPC as substrate (slope) ([1]; 1 mM TCEP, Zn 5000 uM, LmPC-PLC 500 nM, 4-NPPC 1 mM, replicate 1): 0.0001618
Activity of LmPC-PLC, 4-NPPC as substrate (slope) ([1]; 1 mM TCEP, Zn 5000 uM, LmPC-PLC 500 nM, 4-NPPC 1 mM, replicate 2): 0.0001898
Activity of LmPC-PLC, 4-NPPC as substrate (slope) ([1]; 1 mM TCEP, Zn 5000 uM, LmPC-PLC 500 nM, 4-NPPC 1 mM, replicate 3): 0.0002041
Activity of LmPC-PLC, 4-NPPC as substrate (slope) ([1]; 5 mM TCEP, Zn 500 uM, LmPC-PLC 500 nM, 4-NPPC 1 mM, replicate 1, value 0 = no slope could be determined): 0.00000
Activity of LmPC-PLC, 4-NPPC as substrate (slope) ([1]; 5 mM TCEP, Zn 500 uM, LmPC-PLC 500 nM, 4-NPPC 1 mM, replicate 2, value 0 = no slope could be determined): 0.00000
Activity of LmPC-PLC, 4-NPPC as substrate (slope) ([1]; 5 mM TCEP, Zn 500 uM, LmPC-PLC 500 nM, 4-NPPC 1 mM, replicate 3, value 0 = no slope could be determined): 0.00000
Activity of LmPC-PLC, 4-NPPC as substrate (slope) ([1]; 5 mM TCEP, Zn 5000 uM, LmPC-PLC 500 nM, 4-NPPC 1 mM, replicate 1, value 0 = no slope could be determined): 0.00000
Activity of LmPC-PLC, 4-NPPC as substrate (slope) ([1]; 5 mM TCEP, Zn 5000 uM, LmPC-PLC 500 nM, 4-NPPC 1 mM, replicate 2, value 0 = no slope could be determined): 0.00000
Activity of LmPC-PLC, 4-NPPC as substrate (slope) ([1]; 5 mM TCEP, Zn 5000 uM, LmPC-PLC 500 nM, 4-NPPC 1 mM, replicate 3, value 0 = no slope could be determined): 0.00000
Activity of LmPC-PLC, 4-NPPC as substrate (slope) ([1]; 20 mM TCEP, Zn 500 uM, LmPC-PLC 500 nM, 4-NPPC 1 mM, replicate 1, value 0 = no slope could be determined): 0.00000
Activity of LmPC-PLC, 4-NPPC as substrate (slope) ([1]; 20 mM TCEP, Zn 500 uM, LmPC-PLC 500 nM, 4-NPPC 1 mM, replicate 2, value 0 = no slope could be determined): 0.00000
Activity of LmPC-PLC, 4-NPPC as substrate (slope) ([1]; 20 mM TCEP, Zn 500 uM, LmPC-PLC 500 nM, 4-NPPC 1 mM, replicate 3, value 0 = no slope could be determined): 0.00000
Activity of LmPC-PLC, 4-NPPC as substrate (slope) ([1]; 20 mM TCEP, Zn 5000 uM, LmPC-PLC 500 nM, 4-NPPC 1 mM, replicate 1, value 0 = no slope could be determined): 0.00000
Activity of LmPC-PLC, 4-NPPC as substrate (slope) ([1]; 20 mM TCEP, Zn 5000 uM, LmPC-PLC 500 nM, 4-NPPC 1 mM, replicate 2, value 0 = no slope could be determined): 0.00000
Activity of LmPC-PLC, 4-NPPC as substrate (slope) ([1]; 20 mM TCEP, Zn 5000 uM, LmPC-PLC 500 nM, 4-NPPC 1 mM, replicate 3, value 0 = no slope could be determined): 0.00000

c1ccc(CN(CCN(Cc2ccccn2)Cc2ccccn2)Cc2ccccn2)nc1 [TPEN, N,N,N′,N′-tetrakis(2-pyridinylmethyl)−1,2-ethanediamine]
inhibition of LmPC-PLC compared with O-phe ([1]; LmPC-PLC 500 nM, 4-NPPC 1 mM, pH 6.5, 50 μM ZnSO4, Supplementary Fig. 10): even stronger inhibition
Activity of LmPC-PLC towards 4-NPPC (slope) ([1]; inhibitor 2 uM, LmPC-PLC 500 nM, 4-NPPC 1 mM, 20 mM MES pH 6.5, 150 mM NaCl, replicate 1 of N=3): 0.0004788 abs/min
Activity of LmPC-PLC towards 4-NPPC (slope) ([1]; inhibitor 2 uM, LmPC-PLC 500 nM, 4-NPPC 1 mM, 20 mM MES pH 6.5, 150 mM NaCl, replicate 2 of N=3): 0.0004923 abs/min
Activity of LmPC-PLC towards 4-NPPC (slope) ([1]; inhibitor 2 uM, LmPC-PLC 500 nM, 4-NPPC 1 mM, 20 mM MES pH 6.5, 150 mM NaCl, replicate 3 of N=3): 0.0004163 abs/min
Activity of LmPC-PLC towards 4-NPPC (slope) ([1]; inhibitor 4 uM, LmPC-PLC 500 nM, 4-NPPC 1 mM, 20 mM MES pH 6.5, 150 mM NaCl, replicate 1 of N=3): 0.0004484 abs/min
Activity of LmPC-PLC towards 4-NPPC (slope) ([1]; inhibitor 4 uM, LmPC-PLC 500 nM, 4-NPPC 1 mM, 20 mM MES pH 6.5, 150 mM NaCl, replicate 2 of N=3): 0.0005039 abs/min
Activity of LmPC-PLC towards 4-NPPC (slope) ([1]; inhibitor 4 uM, LmPC-PLC 500 nM, 4-NPPC 1 mM, 20 mM MES pH 6.5, 150 mM NaCl, replicate 3 of N=3): 0.0004264 abs/min
Activity of LmPC-PLC towards 4-NPPC (slope) ([1]; inhibitor 8 uM, LmPC-PLC 500 nM, 4-NPPC 1 mM, 20 mM MES pH 6.5, 150 mM NaCl, replicate 1 of N=3): 0.0004334 abs/min
Activity of LmPC-PLC towards 4-NPPC (slope) ([1]; inhibitor 8 uM, LmPC-PLC 500 nM, 4-NPPC 1 mM, 20 mM MES pH 6.5, 150 mM NaCl, replicate 2 of N=3): 0.0004696 abs/min
Activity of LmPC-PLC towards 4-NPPC (slope) ([1]; inhibitor 8 uM, LmPC-PLC 500 nM, 4-NPPC 1 mM, 20 mM MES pH 6.5, 150 mM NaCl, replicate 3 of N=3): 0.0004182 abs/min
Activity of LmPC-PLC towards 4-NPPC (slope) ([1]; inhibitor 16 uM, LmPC-PLC 500 nM, 4-NPPC 1 mM, 20 mM MES pH 6.5, 150 mM NaCl, replicate 1 of N=3): 0.0003725 abs/min
Activity of LmPC-PLC towards 4-NPPC (slope) ([1]; inhibitor 16 uM, LmPC-PLC 500 nM, 4-NPPC 1 mM, 20 mM MES pH 6.5, 150 mM NaCl, replicate 2 of N=3): 0.0004155 abs/min
Activity of LmPC-PLC towards 4-NPPC (slope) ([1]; inhibitor 16 uM, LmPC-PLC 500 nM, 4-NPPC 1 mM, 20 mM MES pH 6.5, 150 mM NaCl, replicate 3 of N=3): 0.0003534 abs/min
Activity of LmPC-PLC towards 4-NPPC (slope) ([1]; inhibitor 31 uM, LmPC-PLC 500 nM, 4-NPPC 1 mM, 20 mM MES pH 6.5, 150 mM NaCl, replicate 1 of N=3): 0.0002559 abs/min
Activity of LmPC-PLC towards 4-NPPC (slope) ([1]; inhibitor 31 uM, LmPC-PLC 500 nM, 4-NPPC 1 mM, 20 mM MES pH 6.5, 150 mM NaCl, replicate 2 of N=3): 0.0003429 abs/min
Activity of LmPC-PLC towards 4-NPPC (slope) ([1]; inhibitor 31 uM, LmPC-PLC 500 nM, 4-NPPC 1 mM, 20 mM MES pH 6.5, 150 mM NaCl, replicate 3 of N=3): 0.0003443 abs/min

[Zn] [Zn]
Activity of LmPC-PLC, 4-NPPC as substrate (slope) ([1]; Zn 500 uM, 0 mM TCEP, LmPC-PLC 500 nM, 4-NPPC 1 mM, replicate 1): 0.0003721
Activity of LmPC-PLC, 4-NPPC as substrate (slope) ([1]; Zn 500 uM, 0 mM TCEP, LmPC-PLC 500 nM, 4-NPPC 1 mM, replicate 2): 0.0004616
Activity of LmPC-PLC, 4-NPPC as substrate (slope) ([1]; Zn 500 uM, 0 mM TCEP, LmPC-PLC 500 nM, 4-NPPC 1 mM, replicate 3): 0.0006377
Activity of LmPC-PLC, 4-NPPC as substrate (slope) ([1]; Zn 5000 uM, 0 mM TCEP, LmPC-PLC 500 nM, 4-NPPC 1 mM, replicate 1): 0.0007074
Activity of LmPC-PLC, 4-NPPC as substrate (slope) ([1]; Zn 5000 uM, 0 mM TCEP, LmPC-PLC 500 nM, 4-NPPC 1 mM, replicate 2): 0.000691
Activity of LmPC-PLC, 4-NPPC as substrate (slope) ([1]; Zn 5000 uM, 0 mM TCEP, LmPC-PLC 500 nM, 4-NPPC 1 mM, replicate 3): 0.0004664

broad-range phospholipase C from Listeria monocytogenes (LmPC-PLC), wild type, mature form (from UniProt P33378 52-289) (enzyme)
stoichiometry N [3]: 2
